{
  "source": "patent US20240262845A1",
  "about": "“PYRIDINIUM SALTS, METHODS OF MAKING, AND METHODS OF USE” (UNIVERSITY OF WYOMING, priority 2023, published 2024)",
  "key": {"[1]": {"biological_target": "T1, lysozyme (Gallus gallus, UniProt P00698)", "T1 construct": "Lysozyme (from chicken egg white, >40,000 units/mg of protein); purchased Sigma Aldrich; host or cells: chicken egg white", "T1 sequence (P00698 19-147)": "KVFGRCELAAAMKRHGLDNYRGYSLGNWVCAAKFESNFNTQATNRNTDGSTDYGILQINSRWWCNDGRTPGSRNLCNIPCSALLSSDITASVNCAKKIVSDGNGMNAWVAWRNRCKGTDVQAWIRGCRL", "assay": "Photochemical labeling of lysozyme with pyridinium salts (General Procedure B, LC/MS)", "format": "biochemical, chicken", "conditions": "lysozyme labeling", "procedure": "General Procedure B: Photochemical Irradiation of Peptides and Proteins: To a 2 mL Pyrex LC/MS vial (Thermo model #03-391-39) were sequentially added solutions containing the desired biomolecule, glutathione (GSH), pyridinium salt, and ammonium acetate (NH4OAc). The resulting solution was diluted to a final volume of 500 μL and then sparged using nitrogen for a minimum of 30 minutes prior to irradiation. The actively sparging solution was then placed in an EvoluChem™ PhotoRedOx Box photoreactor that was equipped with a Kessil, PR160 427 nm LED Lamp and was then irradiated (100% lamp intensity) for the designated time at room temperature while maintaining active sparging. The resultant reaction mixture was then analyzed directly by LC/MS. Analysis of labeling outcomes using LC/MS was performed either by extracted ion chromatogram intensities (method A) or by integrating the area under the peaks associated with peptide content (method B). These values were totaled, and estimated percentages were assigned according to relative intensities of peaks or ion counts.\nLabeling of Lysozyme with Pyridinium Salt 2a (Lysozyme-2a Conjugate). Labeling of lysozyme (14.3 kDa) with the pyridinium salt 2a was performed by following general procedure B using the following solutions: lysozyme (27 μL, 182 μM, 10 μM final concentration), pyridinium salt 2a (200 μL, 500 μM, 200 μM final concentration), NH4OAc (100 μL, 100 mM, pH=6.9, 20 mM final concentration), glutathione (15 μL, 10 mM, 300 μM final concentration), and water (158 μL) with a 100% intensity irradiation time of 60 minutes. The reaction mixture was analyzed directly by LC/MS using method A and was estimated to have proceeded in >95% conversion and a 10.9:1 mono:di labeled ratio and 10% glutathionylation of all unlabeled and labeled protein content was observed.\nLabeling of Lysozyme with Pyridinium Salt 2b (Lysozyme-2b Conjugate). Labeling of lysozyme (14.3 kDa) with the pyridinium salt 2b was performed by following general procedure Busing the following solutions: lysozyme (19 μL, 262 μM, […]), 2b (181 μL, 554 μM, 200 μM final concentration), NH4OAc (50 μL, 200 mM, pH=6.9, 20 mM final concentration), glutathione (50 μL, 3 mM, 300 μM final concentration), and water (200 μL) with a 100% intensity irradiation time of 10 minutes. The reaction mixture was analyzed directly by LC/MS using method A and was estimated to have proceeded with 83% conversion. […]\nLabeling of Lysozyme with Pyridinium Salt 2c (Lysozyme-2c Conjugate). […] The reaction mixture was analyzed directly by LC/MS using method A and was estimated to have proceeded with 85% conversion and a 3.7:1 mono:di labeled ratio and 10% glutathionylation of all protein content was observed. […]"}, "[2]": {"test_system": "HEK293T cells", "assay": "In-situ chemoproteomic tryptophan profiling of live HEK293T cells", "format": "cell-based, human", "procedure": "Cell culture and in-situ tryptophan probe treatment: Cell lines were cultured at 37° C. with 5% CO2. Human embryonic kidney 293 cells expressing a mutant version of the SV40 large T antigen (HEKT293T cells) were grown in Dulbecco's Modified Eagle Medium (DMEM, Gibco) supplemented with 10% fetal bovine serum and 1% penicillin/streptomycin. For in-situ labeling, cells were grown to 90% confluence, washed with Dulbecco's phosphate buffered saline (DPBS), treated with 100× stocks of the tryptophan probes (the pyridinium salts) in OptiMem (GibCo) to generate final concentrations (0 μM, 1 μM, 10 μM, and 100 μM) in 1% dimethylsulfoxide (DMSO). Cells were incubated for 1 hour at 37° C. with 5% CO2 followed by photo-activation at the respective wavelengths for 20 minutes at 4° C. Cells were harvested with a cell scraper, washed 3× with DPBS, and pellets were stored at −80° C. until further use. The following light sources were used for photo-activation:\nIn-situ tryptophan probe sample processing for peptide-level characterization: Cell pellets were lysed via sonication (QSonica) at 50% amplitude, 2 seconds ON, 3 seconds OFF, 30 seconds in 40 mM HEPES pH 7.5 (4-(2-hydroxyethyl)-1-piperazineethanesulfonic acid), 1.5 mM magnesium chloride (MgCl2), 1% Sodium dodecyl sulfate (SDS), 0.8% NP-40 (also known as nonyl phenoxypolyethoxylethanol), and 1× protease inhibitors (Thermo). Protein concentration was determined by BCA (Pierce). 400 μg protein lysate were taken for copper-catalyzed azide-alkyne cycloaddition (CuAAC) reactions with 100 μM of the acid cleavable DAPBS Biotin Alkyne (Click Chemistry Tools), 250 μM copper sulfate (CuSO4), 500 μM BTTP (C20H34N10O2) (Click Chemistry Tools), and 2.5 mM ascorbate and incubated for 60 minutes at R.T. Samples were precipitated with methanol:chloroform and re-suspended in 50 mM HEPES pH 8.0 containing 1% RapiGest SF (Waters). The samples were reduced with 10 mM dithiothreitol (DTT) (Pierce) and alkylated with 25 mM iodoacetamide (Pierce). The samples were diluted down to 0.1% RapiGest SF and treated with 4 μg Trypsin/LysC (Promega) at 37° C. for 16 hours. The digested peptides were than labeled with isobaric tandem mass tag (TMT) reagents (Thermo) as specified by the manufacturer. The labeled peptides were then combined, concentrated to remove acetonitrile, and re-suspended in 50 mM HEPES pH 8.0 containing 0.2% SDS. […]\nQuantitative proteomics by two-dimensional nano liquid chromatography-tandem mass spectrometry (nLC-MS/MS): For protein-level characterization, the TMT-labeled sample were reconstituted in 0.1% formic acid (FA)/2% acetonitrile for offline high-pH reversed phase separation (RP10) using a Dionex UltiMate 3000 high-performance liquid chromatography (HPLC) system with fraction collection using Chromeleon v.6.8 (Thermo) software. […]"}},
  "note": "Where a name gives a salt, the structure may show the parent alone.",
  "data": [
    {"smiles": "COc1ccc2cc(-c3cc(C)[n+](N(C)C(=O)OCCCCCCN=[N+]=[N-])c(C)c3)ccc2c1", "note": "[pyridinium salt 2d, 1-((((6-azidohexyl)oxy)carbonyl)(methyl)amino)-4-(6-methoxynaphthalen-2-yl)-2,6-dimethylpyridin-1-ium tetrafluoroborate]", "values": [
      {"measurement": "labeling rate compared to pyridinium salt 2a", "setting": "[1]", "result": "enhance rates"},
      {"measurement": "Trp-modified peptide fragments detected showing dose response behavior", "setting": "[2]; about 100 μM probe, 60 min 37° C., 440 nm 20 min 4° C., peptide-level enrichment", "result": 290},
      {"measurement": "plasma membrane crossing / subcellular penetration", "setting": "[2]; subcellular localization of modified proteins (UniProt)", "result": "readily crosses the plasma membrane"},
      {"measurement": "selectivity for tryptophan", "setting": "[2]; taking relative amino acid frequency in human proteins into account, FIG. 19B", "result": "about 82%"},
      {"measurement": "Western validation of NPM1 and PARP1 in enriched protein mixtures", "setting": "[2]; varying concentrations, with and without blue light, protein-level enrichment", "result": "found to contain both proteins"}
    ]}
  ]
}
